Laboratory results taken from patent US20240010726A1, “LFA-1 SIGNALLING MEDIATOR FOR USE IN CANCER THERAPY” (Universität Basel, priority 2020, published 2024).

Legend:
T2 target cells = format: cell-based, human
PC3-PIP tumor cells = test: Anti-PSMA CAR T cell in vivo experiment with Mg2+-restricted diet; design: species or system NSG mice; details: Mg^2+-depleted diet vs control diet; anti-PSMA CAR T cells i.v.
Procedure: FIG. 3: Magnesium regulates LFA-1 mediated T cell activation and cytotoxicity as well BiTE- and CAR T-cell functionality. (a) Glycolytic switch of murine WT and LFA-1^−/− CTLs upon injection of anti-CD3/28 Ab in medium containing 1.2 mM Mg^2+ and 0 mM Mg^2+, presented as quantification of summarized data with n=4 mice. (b) Calcium flux in WT and LFA-1^−/− Jurkat T cells stimulated with anti-CD3 Ab in 1.2 mM and 0 mM Mg^2+ medium, respectively. Cells were loaded with Fluo4, and signal intensity as recorded by plate reader, was normalized to unstimulated baseline values. […] Quantified results of n=3 mice with 3 technical replicates each. […] The effector to target cell ratio was 3:1. Results are quantified of n=3 mice with 3 technical replicates each. (e) Representative CD11a (LFA-1) surface expression on human naïve and EM CD8 T cells, PHA T cell blasts and REP T cells, assessed by flow cytometry. […] Data is presented as quantified results of n=5 healthy donors (f, g, h), n=3 healthy donors with 2 technical replicates each or n=1 healthy donor with 4 technical replicates (j). […] Data is presented as quantified results of n=1 healthy donor with 4 technical replicates. […] (p) Abundance of IFNγ in cell culture supernatants corresponding to the conditions depicted in (o) at 24 hours was determined by ELISA (n=8, 3 independent experiments). […] Tumor volume was monitored twice per week. […]

human EM CD8 T cells = test: Flow cytometry of surface activation markers on EM CD8 T cells; format: cell-based; details: 24 h plate-bound anti-CD3 and soluble anti-CD28 Ab; 0 mM vs 1.2 mM Mg^2+
Procedure: FIG. 2: Extracellular magnesium promotes memory-specific activation via LFA-1. Glycolytic switch of human EM CD8 T cells (a) and naïve CD8 T cells (b) subsets upon injection of anti-CD3 Ab only, or anti-CD3 and anti-CD28 Ab, was assessed by metabolic flux analysis in medium containing either 1.2 mM Mg^2+, 0 mM Mg^2+, or medium which was reconstituted from 0 mM to 1.2 mM Mg^2+ immediately prior to activation (0→1.2 mM Mg^2+). (a) Results for human effector memory (EM) and (b) for human naïve CD8 T cells. Glycolytic switch was quantified by subtracting […] measurements. (c) Flow cytometric analysis of surface activation markers on human EM CD8 T cells 24 hours after activation by plate-bound anti-CD3 Ab and soluble anti-CD28 Ab, in 1.2 mM and 0 mM Mg^2+ media, respectively. (d) Abundance of inflammatory cytokines in corresponding EM CD8 T cell culture supernatants, determined by CBA. (e) CD11a (LFA-1) surface expression on human naïve and EM CD8 T cells as well PHA T cell blasts. Flow cytometry-based assessment of total LFA-1 expression assessed by mAb TS2/4 (f), closed conformation of αL by mAb HI111 (g), extended conformation of LFA-1 by mAb Kim127 (h), open head-piece conformation of LFA-1 by mAb m24 (i), phosphorylation of focal adhesion kinase (FAK) […] as well TNF expression (k)±TCR-induced activation in different extracellular Mg^2+ concentrations. (l) Flow cytometry-based assessment of LFA-1 with open-head piece conformation on human EM and naïve CD8 T cells using the open head-piece reporter mAb m24. (m) Assessment of glycolytic switch of EM CD8 T cells. (n) Assessment of glycolytic switch of naïve CD8 T cells. […] Naïve CD8 T cells were activated with in house generated anti-CD3/anti-CD28 coated microbeads. Polybead microspheres ([…], Polyscience […]) were incubated with 1 μg anti-CD3 Ab and 10 μg anti-CD28 Ab. […] Primary human T cells were activated for 24 h and PHA-blasts for 4 h. For analysis of surface markers, T cells were harvested at indicated time points, washed once in cold PBS and, if required, stained with Fixable Viability Dyes for 15 min at 4° C. Surface markers were stained with appropriate antibodies for 20 min at 4° C.

[1] = test system: murine WT and LFA-1^−/− CTLs; test: Degranulation marker CD107a on murine WT and LFA-1−/− CTLs; format: cell-based; details: 8 h anti-CD3/anti-CD28 Ab; 0 mM vs 1.2 mM Mg^2+

## [Mg+2] [Mg^2+, Magnesium]
T2 target cells
  Cytotoxicity of REP T cells (caspase-3 activity in T2 target cells): significantly increased
PC3-PIP tumor cells
  CAR T cell-mediated tumor rejection (tumor growth): negatively impacted CAR T cell-mediated tumor-rejection
Human EM CD8 T cells
  CD25 surface expression: failed to upregulate
  CD69 surface expression: failed to upregulate
  CD71 surface expression: failed to upregulate
  CD98 surface expression: failed to upregulate
  CD107a surface expression (degranulation): failed to upregulate
[1]
  CD107a degranulation of LFA-1^−/− CTLs: unaffected
  CD107a degranulation of WT CTLs: reduced CTL degranulation
